# From patent publication US20170107207A1, “AMINOPYRAZOLONE DERIVATIVE” (DAIICHI SANKYO COMPANY, LIMITED, priority 2014, published 2017)
# Tests used:
# [1] = tested on: human lymphoma cell line RAMOS cells; test: Cell growth inhibition test using RAMOS cell, ATP assay (CellTiter-Glo); format: cell-based; settings: Homo sapiens, Ramos, 72 h, cultured 3 days, 50% growth inhibition concentration
# Method in brief: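 RAMOS cells seeded at 4000 cells/well with compound and cultured 3 days at 37° C, 5% CO2; viability by CellTiter-Glo luminescence. Growth rate T/C % = 100×[(B−C)/(A−C)] using day-0 and final readings; GI50 interpolated from the two concentrations bracketing 50% growth.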
# TIP48/TIP49 complex = target: T1, TIP48/TIP49 complex (Homo sapiens, UniProt Q9Y230+Q9Y265); test: ATPase assay of TIP48/TIP49 complex (ADP-Glo); format: biochemical; settings: concentration at which the ATPase activity was inhibited by 50%
# T1 construct: made in house; host or cells: E. coli
# T1 sequence (Q9Y230 whole entry): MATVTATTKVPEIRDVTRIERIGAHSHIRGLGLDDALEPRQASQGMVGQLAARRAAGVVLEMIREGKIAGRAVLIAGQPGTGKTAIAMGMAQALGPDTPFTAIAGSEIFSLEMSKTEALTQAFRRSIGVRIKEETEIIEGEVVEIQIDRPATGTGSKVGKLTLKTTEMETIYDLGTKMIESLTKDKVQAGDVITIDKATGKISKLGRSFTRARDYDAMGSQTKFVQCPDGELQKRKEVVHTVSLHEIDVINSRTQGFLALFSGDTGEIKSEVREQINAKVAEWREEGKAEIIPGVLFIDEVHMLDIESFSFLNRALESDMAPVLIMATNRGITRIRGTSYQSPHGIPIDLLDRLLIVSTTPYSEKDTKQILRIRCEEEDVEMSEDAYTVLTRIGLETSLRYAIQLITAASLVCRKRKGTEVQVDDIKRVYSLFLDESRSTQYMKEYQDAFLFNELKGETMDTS
# T1 sequence (Q9Y265 whole entry): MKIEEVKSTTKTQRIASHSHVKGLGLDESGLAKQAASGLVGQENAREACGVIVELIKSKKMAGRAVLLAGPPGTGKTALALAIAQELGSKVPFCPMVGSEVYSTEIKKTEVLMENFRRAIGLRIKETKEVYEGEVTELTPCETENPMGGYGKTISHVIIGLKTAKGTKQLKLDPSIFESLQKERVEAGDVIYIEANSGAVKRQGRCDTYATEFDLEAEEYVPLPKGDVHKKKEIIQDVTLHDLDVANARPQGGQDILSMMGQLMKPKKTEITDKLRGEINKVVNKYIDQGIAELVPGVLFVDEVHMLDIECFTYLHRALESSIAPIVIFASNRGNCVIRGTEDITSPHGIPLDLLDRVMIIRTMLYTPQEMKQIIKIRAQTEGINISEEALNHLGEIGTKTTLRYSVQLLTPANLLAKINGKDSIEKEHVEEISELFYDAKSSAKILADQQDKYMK
# Method in brief: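 Recombinant human TIP48 and TIP49 expressed in E. coli (24.5 μg/mL final) were incubated 1.5 h at room temperature with compound (0.0007–200 μM, 2% DMSO) in Tris-HCl pH 7.5 buffer containing MgCl2 and ATP. ADP formed was detected by ADP-Glo luminescence; inhibition came from dose-response curves.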
# [2] = tested on: human lymphoma cell line RAMOS cells; test: Cell growth inhibition test using RAMOS cell, MTT assay; format: cell-based; settings: 50% growth inhibition concentration
# Method in brief: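 Cells in RPMI1640 with 10% FBS were exposed to compound (DMSO ≤1%) for 3 days at 37° C, 5% CO2. Viability was read by MTT (4 h, formazan in DMSO, OD 540/660 nm) against a day-0 plate; GI50 was interpolated from T/C % growth rates.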
Compound,GI50 [1],IC50 (TIP48/TIP49 complex),GI50 [2]
"CCOc1ncc(Cl)cc1C(=O)NCC(C)(C)CC(=O)Nc1c(CCN(C)C)n(C)n(-c2ccccc2)c1=O [Example 13, 5-Chloro-N-[4-({5-[2-(dimethylamino)ethyl]-1-methyl-3-oxo-2-phenyl-2,3-dihydro-1H-pyrazol-4-yl}amino)-2,2-dimethyl-4-oxobutyl]-2-ethoxypyridine-3-carboxamide]",610 nM,82 nM,110 nM
"CCOc1ccc(Cl)cc1C(=O)NCC(C)(C)CC(=O)Nc1c(CCN(C)CC(F)(F)F)n(C)n(-c2ccccc2)c1=O [Example 39, 5-Chloro-N-{2,2-dimethyl-4-[(1-methyl-5-{2-[methyl(2,2,2-trifluoroethyl)amino]ethyl}-3-oxo-2-phenyl-2,3-dihydro-1H-pyrazol-4-yl)amino]-4-oxobutyl}-2-ethoxybenzamide]",240 nM,82 nM,99 nM
"CCOc1ncc(Cl)cc1NC(=O)CC(C)(C)CC(=O)Nc1c(COC)n(C)n(-c2ccccc2)c1=O [Example 118, N-(5-Chloro-2-ethoxy-3-pyridine)-N′-[5-(methoxymethyl)-1-methyl-3-oxo-2-phenyl-2,3-dihydro-1H-pyrazol-4-yl]-3,3-dimethylpentanediamide]",640 nM,65 nM,230 nM
"Cc1cccc(-n2c(=O)c(NC(=O)CC(C)(C)CNC(=O)c3cc(Cl)cc4cc(C)oc34)c(C)n2C)n1 [Example 155, 5-Chloro-N-(4-{[1,5-dimethyl-2-(6-methyl-2-pyridyl)-3-oxopyrazol-4-yl]amino}-2,2-dimethyl-4-oxobutyl)-2-methylbenzofuran-7-carboxamide]",190 nM,59 nM,59 nM
"CCOc1ccc(Cl)cc1C(=O)NCC(C)(C)CC(=O)Nc1c(C)n(C)n(-c2cc(OC)ccn2)c1=O [Example 157, 5-Chloro-2-ethoxy-N-(4-{[1-(4-methoxy-2-pyridyl)-2,3-dimethyl-5-oxopyrazol-4-yl]amino}-2,2-dimethyl-4-oxobutyl)benzamide]",430 nM,140 nM,120 nM

# Stronger by GI50 [1], values ahead:
GI50 [1],IC50 (TIP48/TIP49 complex),GI50 [2],Compound
150 nM,53 nM,53 nM,"CCOc1ccc(Cl)cc1C(=O)NCC(C)(C)CC(=O)Nc1c(CCN(C)C)n(C)n(-c2ccccc2)c1=O [Example 11, 5-Chloro-N-[4-({5-[2-(dimethylamino)ethyl]-1-methyl-3-oxo-2-phenyl-2,3-dihydro-1H-pyrazol-4-yl}amino)-2,2-dimethyl-4-oxobutyl]-2-ethoxybenzamide]"
140 nM,62 nM,35 nM,"CCOc1cc(F)c(Cl)cc1C(=O)NCC(C)(C)CC(=O)Nc1c(CCN(C)C)n(C)n(-c2ccccc2)c1=O [Example 12, 5-Chloro-N-[4-({5-[2-(dimethylamino)ethyl]-1-methyl-3-oxo-2-phenyl-2,3-dihydro-1H-pyrazol-4-yl}amino)-2,2-dimethyl-4-oxobutyl]-2-ethoxy-4-fluorobenzamide]"
130 nM,41 nM,32 nM,"Cc1cc2cc(Cl)cc(C(=O)NCC(C)(C)CC(=O)Nc3c(CCN(C)C)n(C)n(-c4ccccc4)c3=O)c2o1 [Example 14, 5-Chloro-N-[4-({5-[2-(dimethylamino)ethyl]-1-methyl-3-oxo-2-phenyl-2,3-dihydro-1H-pyrazol-4-yl}amino)-2,2-dimethyl-4-oxobutyl]-2-methylbenzofuran-7-carboxamide]"
120 nM,33 nM,27 nM,"CCOc1ccc(Cl)cc1C(=O)NCC(C)(C)CC(=O)Nc1c(CCN(C)C)n(CC)n(-c2ccccc2)c1=O [Example 40, 5-Chloro-N-[4-({5-[2-(dimethylamino)ethyl]-1-ethyl-3-oxo-2-phenyl-2,3-dihydro-1H-pyrazol-4-yl}amino)-2,2-dimethyl-4-oxobutyl]-2-ethoxybenzamide]"
140 nM,31 nM,42 nM,"CCOc1ccc(Cl)cc1C(=O)NCC(C)(C)CC(=O)Nc1c(COC)n(C)n(-c2ccccc2)c1=O [Example 114, 5-Chloro-2-ethoxy-N-(4-{[5-(methoxymethyl)-1-methyl-3-oxo-2-phenyl-2,3-dihydro-1H-pyrazol-4-yl]amino}-2,2-dimethyl-4-oxobutyl)benzamide]"
